# Numbered stars: 1 amine (or outer) side, 2 acyl side, 3 side chain; on linkers, the order of the positions; unused ones are H or OH. Bridge positions count the residues as written; N and C are the ends. Square brackets hold non-standard residues; d marks the D form. Peptide text beside a SMILES is read from it. I, II: the chains in the order shown. Actinocin(9to1) = Cc1c2oc3c(C)ccc(C(=O)[*:1])c3nc-2c(C(=O)[*:2])c(N)c1=O; NMeV = CN[C@H](C(=O)O)C(C)C; Sar = CNCC(=O)O
# Key:
# [1] = test system: panel of 48 to 60 cell lines; test: 5×4 combination screen with SR16388; synergism hit rate by algorithm (Z score); type: cell-based; details: in combination with SR16388, all 20 (5×4) dose combinations
# Method: (§1) SR16388 was synthesized in house.
# 5) A “combination score” was assigned to each specific combination (Ca1b1x): C=1 if Za1b1x>3*SD and C=0 if Za1b1x≦3*SD score);
# 6) Hit rate of each combination was calculated by comparing the sum of the combination scores of all 20 (5×4) dose combinations with all cell lines to the total number of data points of that specific combination;
# 7) Hit rate were ranked from high to low to identify potential synergistic combinations.
# [2] = test system: various cancer cell lines; test: 11×7 synergism hit rate over all cell lines (by algorism); type: cell-based; details: when tested with SR16388
# Source text: as §1
# Within the same type of cancer cells, some cell lines have more synergistic hits than others. Melanoma and breast cancer cell lines had the highest hit rate.
# [3] = test system: panel of 48 to 60 cell lines; test: 5×4 combination screen with SR16388, CellTiter-Glo viability; synergy by pattern recognition; details: in combination with SR16388, 5x4-T1; for no effect (number of cell lines) / synergy (number of cell lines): pattern recognition, of 60 cell lines incl. no data; for % synergy: share of cell lines with data
# Method: Cells were treated with compounds alone or in combination for three days and CellTiter-Glo® Luminescent Cell Viability Assay (Promega Corp.) was used as the endpoint to measure cell viability.
# Cells were cultured in DMEM with 10% fetal bovine serum and used between passage 2 and passage 20. Cells were harvested on Day-1 (FIG. 1A) and re-supspended to the corresponding seeding density and seeded with Wellmate (ThermoFisher) to 384 plates (BD or GBO).
# 40 mM Compound stocks in 100% DMSO were made. Master plates were made with Janus (PerkinElmer), then further diluted and added to the cell plates with Matrix Platemate (Thermo) on Day 0.
# CellTiter-Glo® Luminescent Cell Viability Assay (Promega Corp.) was used to measure ATP as an indicator of viable cells on Day 3 using Envision (PerkinElmer) and back up reader Analyst HT (MDS) and Gen5 (BioTek).
# Single point, 5×4 checkque board platemap was used in the initial screening.
# Relative Luminescent Units (RLU) were plotted against corresponding drug concentrations and fitted with standard four parameter sigmoidal curve with custom coded R program or Calcusyn (Biosoft, Cambridge, UK).
# [4] = Prior in vivo xenograft study and other safety data
# [5] = test system: cancer cell lines; test: Combination cell viability assay, general observations on ratios and confirmed synergy; type: cell-based; details: in combination with SR16388
# Method: Cells were treated with compounds alone or in combination for three days and CellTiter-Glo® Luminescent Cell Viability Assay (Promega Corp.) was used as the endpoint to measure cell viability. […] Cells were harvested on Day-1 (FIG. 1A) and re-supspended to the corresponding seeding density and seeded with Wellmate (ThermoFisher) to 384 plates (BD or GBO). […] Master plates were made with Janus (PerkinElmer), then further diluted and added to the cell plates with Matrix Platemate (Thermo) on Day 0. CellTiter-Glo® Luminescent Cell Viability Assay (Promega Corp.) was used to measure ATP as an indicator of viable cells on Day 3 using Envision (PerkinElmer) and back up reader Analyst HT (MDS) and Gen5 (BioTek). Relative Luminescent Units (RLU) were plotted against corresponding drug concentrations and fitted with standard four parameter sigmoidal curve with custom coded R program or Calcusyn (Biosoft, Cambridge, UK).
Compound,% hit/combo [1],hit rate [2],no effect (number of cell lines) [3],synergy (number of cell lines) [3],% synergy [3],overlapping toxicities with microtubulin inhibitors [4],tolerability [4],interaction with SR16388 (confirmed) [5]
"Cc1c2oc3c(C)ccc(C(=O)N[C@@H]4C(=O)N[C@H](C(C)C)C(=O)N5CCC[C@H]5C(=O)N(C)CC(=O)N(C)[C@@H](C(C)C)C(=O)O[C@@H]4C)c3nc-2c(C(=O)N[C@@H]2C(=O)N[C@H](C(C)C)C(=O)N3CCC[C@H]3C(=O)N(C)CC(=O)N(C)[C@@H](C(C)C)C(=O)O[C@@H]2C)c(N)c1=O [Actinomycin] (I: T[dV]P[Sar][NMeV] / II: T[dV]P[Sar][NMeV]; ester I:1-I:C, II:1-II:C; linker I:N-II:N via Actinocin(9to1))",1.67%,1.89%,39,,,,,
CCCCCOC(=O)Nc1nc(=O)n([C@@H]2O[C@H](C)[C@@H](O)[C@H]2O)cc1F [Capecitabine],1.08%,,58,0,0%,,,
N.N.O=C([O-])C1(C(=O)[O-])CCC1.[Pt+2] [Carboplatin],0.83%,,41,1,2%,,,
Cc1ccc(-c2cc(C(F)(F)F)nn2-c2ccc(S(N)(=O)=O)cc2)cc1 [Celecoxib],0.67%,,42,0,0%,,,
Nc1nc(Cl)nc2c1ncn2[C@H]1C[C@H](O)[C@@H](CO)O1 [Cladribine],0.67%,,42,0,0%,,,
Nc1nc(Cl)nc2c1ncn2[C@@H]1O[C@H](CO)[C@@H](O)[C@@H]1F [Clofarabine],0.50%,,58,,,,,
Nc1ccn([C@@H]2O[C@H](CO)[C@@H](O)[C@@H]2O)c(=O)n1 [Cytarabine],0.33%,,42,0,0%,,,
Cc1nc(Nc2ncc(C(=O)Nc3c(C)cccc3Cl)s2)cc(N2CCN(CCO)CC2)n1 [Dasatinib],1.08%,,50,8,14%,,,
CO[C@H]1C[C@@H]2CC[C@@H](C)[C@@](O)(O2)C(=O)C(=O)N2CCCC[C@H]2C(=O)O[C@H]([C@H](C)C[C@@H]2CC[C@@H](OCCO)[C@H](OC)C2)CC(=O)[C@H](C)/C=C(\C)[C@@H](O)[C@@H](OC)C(=O)[C@H](C)C[C@H](C)/C=C/C=C/C=C/1C [Everolimus],0.42%,,58,0,0%,,,
O=c1[nH]c(=O)n([C@H]2C[C@H](O)[C@@H](CO)O2)cc1F [Floxuridine],0.67%,,42,0,0%,,,
Nc1nc(F)nc2c1ncn2[C@@H]1O[C@H](CO)[C@@H](O)[C@@H]1O [FluroaraA],0.67%,,42,0,0%,,,
Nc1ccn([C@@H]2O[C@H](CO)[C@@H](O)C2(F)F)c(=O)n1 [Gemcitabine],0.83%,,58,0,0%,,,
Cc1ccc(NC(=O)c2ccc(CN3CCN(C)CC3)cc2)cc1Nc1nccc(-c2cccnc2)n1 [Imatinib],0.92%,,41,1,2%,,,
CS(=O)(=O)CCNCc1ccc(-c2ccc3ncnc(Nc4ccc(OCc5cccc(F)c5)c(Cl)c4)c3c2)o1 [Lapatinib],0.67%,,55,3,5%,,,
N#Cc1ccc(C(c2ccc(C#N)cc2)n2cncn2)cc1 [Letrozole],0.42%,,42,0,0%,,,
COc1nc(N)nc2c1ncn2[C@@H]1O[C@H](CO)[C@@H](O)[C@@H]1O [Nelarabine],0.33%,,58,0,0%,,,
Cc1cn(-c2cc(NC(=O)c3ccc(C)c(Nc4nccc(-c5cccnc5)n4)c3)cc(C(F)(F)F)c2)cn1 [Nilotinib],0.33%,,42,0,0%,,,
CO[C@H]1C[C@@H]2CC[C@@H](C)[C@@](O)(O2)C(=O)C(=O)N2CCCC[C@H]2C(=O)O[C@H]([C@H](C)C[C@@H]2CC[C@@H](O)[C@H](OC)C2)CC(=O)[C@H](C)/C=C(\C)[C@@H](O)[C@@H](OC)C(=O)[C@H](C)C[C@H](C)/C=C/C=C/C=C/1C [Rapamycin],0.83%,,54,,,,,
C/C=C1\NC(=O)[C@H]2CSSCC/C=C/[C@H](CC(=O)N[C@H](C(C)C)C(=O)N2)OC(=O)[C@H](C(C)C)NC1=O [Romidepsin],0.75%,,52,6,10%,,,
CCc1c2c(nc3ccc(O)cc13)-c1cc3c(c(=O)n1C2)COC(=O)[C@]3(O)CC [SN38],0.58%,,45,13,22%,,,
C[C@@H]1Cc2cc(O)ccc2[C@H]2CC[C@]3(C)/C(=C/COCCN(C)C)CC[C@H]3[C@H]12 [SR16388],,,,,,does not have ovelapping toxicities,well tolerated,
CCN(CC)CCNC(=O)c1c(C)[nH]c(/C=C2\C(=O)Nc3ccc(F)cc32)c1C [Sunitinib],1.25%,,56,,,,,
CC/C(=C(\c1ccccc1)c1ccc(OCCN(C)C)cc1)c1ccccc1 [Tamoxifen],0.83%,,39,3,7%,,,
Cn1nnc2c(C(N)=O)ncn2c1=O [Temozolomide],0.75%,,42,,,,,
S=P(N1CC1)(N1CC1)N1CC1 [Thiotepa],0.83%,,42,,,,,
CC1=C(/C=C/C(C)=C/C=C/C(C)=C/C(=O)O)C(C)(C)CCC1 [Tretinoin],0.58%,,42,0,0%,,,
CCC1=C[C@@H]2CN(C1)Cc1c([nH]c3ccccc13)[C@@](C(=O)OC)(c1cc3c(cc1OC)N(C)[C@H]1[C@@](O)(C(=O)OC)[C@H](OC(C)=O)[C@]4(CC)C=CCN5CC[C@]31[C@@H]54)C2 [Vinorelbine],,,,,,,,synergistic anti-proliferation effect
O=C(CCCCCCC(=O)Nc1ccccc1)NO [Vorinostat],0.83%,,58,0,0%,,,

# Source: patent publication US20130123222A1, “Synergistic Anti-Cancer Activity of SR16388 with Anti-Mitotic Drugs” (SRI INTERNATIONAL, INC., priority 2011, published 2013)
